Results taken from ChEMBL document CHEMBL4680105, “Discovery of Benzenesulfonamide Derivatives as Carbonic Anhydrase Inhibitors with Effective Anticonvulsant Action: Design, Synthesis, and Pharmacological Evaluation” (J Med Chem, 2018).

Target: Carbonic anhydrase 9 (Homo sapiens, UniProt Q16790)
Assay: Inhibition of recombinant human carbonic anhydrase 9 by stopped-flow CO2 hydration assay

Compound	Ki
NS(=O)(=O)c1ccc(CNC(=O)CN2CCN(C(c3ccc(F)cc3)c3ccc(F)cc3)CC2)cc1	2.44 µM
NS(=O)(=O)c1ccc(CNC(=O)CN2CCN(c3ccccc3)CC2)cc1	0.396 µM
NS(=O)(=O)c1ccc(CNC(=O)CN2CCN(Cc3ccc4c(c3)OCO4)CC2)cc1	1.6 µM
Cc1ccc(N2CCN(CC(=O)NCc3ccc(S(N)(=O)=O)cc3)CC2)cc1	1.53 µM
NS(=O)(=O)c1ccc(CNC(=O)CN2CCN(c3ccc(Cl)cc3)CC2)cc1	1.2 µM
NS(=O)(=O)c1ccc(CNC(=O)CN2CCN(c3ccccn3)CC2)cc1	1.56 µM

Molecules with a lower Ki, results first:

Ki	Compound
0.257 µM	NS(=O)(=O)c1ccc(CNC(=O)CCN2CCN(C(=O)OCc3ccccc3)CC2)cc1
0.098 µM	NS(=O)(=O)c1ccc(CNC(=O)CCN2CCN(C(c3ccc(F)cc3)c3ccc(F)cc3)CC2)cc1
0.228 µM	NS(=O)(=O)c1ccc(CNC(=O)CN2CCN(c3ccc(F)cc3)CC2)cc1
0.0237 µM	NS(=O)(=O)c1ccc(CNC(=O)CCN2CCN(c3ccccc3)CC2)cc1
0.162 µM	NS(=O)(=O)c1ccc(CNC(=O)CCN2CCN(c3ccccn3)CC2)cc1
0.116 µM	NS(=O)(=O)c1ccc(CNC(=O)CCN2CCN(Cc3ccccc3)CC2)cc1
0.117 µM	NS(=O)(=O)c1ccc(CNC(=O)CCN2CCN(c3ccc(Cl)cc3)CC2)cc1
